These results are taken from patent publication US20050277600A1, “Compositions and methods of use of dimer digallates” (Mars, Incroporated, priority 2004, published 2005).

One data set relates to rabbit aortic rings. Kind of data set: Relaxation of norepinephrine pre-constricted rabbit aortic rings ex vivo. The settings on record: for Max Relaxation: Experiment 3, 100 μM; for Aortic Ring Effective Conc,: Table 1 summary. Here is the method:
Several compounds were investigated for their effect on nitric oxide (NO) production and vasorelaxation using serum-free human umbilical vein endothelial cell (HUVEC) culture system in vitro and rabbit aortic ring model ex vivo, respectively. NO production by endothelial cells and relaxation of pre-constricted aortic rings are two main markers for evaluating vascular effects of test compounds. Effect of different procyanidins on endothelium-dependent relaxation was tested in an ex vivo experiment performed as previously described by Karim et al., J. Nutrl Suppl., 130 (8S): […]-[…] (2000), the relevant portions of which are hereby incorporated herein by reference. The advantage of using this method is that it assesses functional vascular end points. […] In summary, rabbit aortic rings were obtained from male New Zealand White rabbits. Following isolation, the rings were mounted in oxygenated Kreb's buffer, and pre-constricted with norepinephrine (NE) (10^-6 M). […] A positive control acetylcholine (10^-9 to 10^-4 M) and a negative control L-NAME were included in the experiment. Use of L-NAME, which is a NO synthase (NOS) inhibitor, allows for differentiating between endothelium dependent and endothelium independent relaxation events. […] The relaxation response was measured as a function of the decrease in the tension (g) exerted by the aortic rings over time […]. Data obtained were expressed as a percent relaxation of the norepinephrine (NE) constricted rings. The same statistical approach as described above was used. Dose response curves were obtained by plotting the average percent relaxation (+/-SE) against the concentrations used.

The subject of data set [1] is human umbilical vein endothelial cell (HUVEC) NO production. As to the kind of experiment: HUVEC NO production (NOx in cell culture medium, chemiluminescence). Format: cell-based. The settings on record: for HUVEC Cells NOx, 24 hr / HUVEC Cells NOx, 5 d / HUVEC Cells NOx, 2 hr: Table 2 summary; for NO production, positive and negative controls: Experiment 1, acute, 2 hours. Here is the method: Several compounds were investigated for their effect on nitric oxide (NO) production and vasorelaxation using serum-free human umbilical vein endothelial cell (HUVEC) culture system in vitro and rabbit aortic ring model ex vivo, respectively. NO production by endothelial cells and relaxation of pre-constricted aortic rings are two main markers for evaluating vascular effects of test compounds.
HUVECs obtained from a single donor were cultured in serum free, low protein (0.5 g/l), antibiotic-free cell culture medium supplemented with essential growth factors, nutrients and minerals. […] The cell culture medium was substituted with apo-transferrin, superoxide dismutase, and catalase to exclude secondary effects of test compounds involving their auto-oxidation mediated hydrogen peroxide formation.
NO production was evaluated by measuring the total amount of all major nitric oxide end products (NOx, including nitrate, nitrite, nitrosothiols) present in the cell culture medium. […] The amount of NO released from the culture medium was subsequently evaluated by measuring the chemiluminescence emitted during the stoichiometrical reaction between ozone and NO using a NO Analyzer (Sievers Instruments, Inc. Boulder, Colo.).
The data presented herein were obtained from three experiments and were expressed as the concentration of NO present (in μmol/l) (as NOx) in the cell culture medium+/−standard deviation (SD). The data were corrected for the NOx intrinsically present in the fully supplemented cell culture medium and normalized with respect to the volume of media from which the sample was drawn. Data were analyzed using Student's t-test with a 95% level of confidence. P values equal to or less than 0.05 were defined as statistically significant.
For the acute effect test, HUVECs were incubated with the test compounds for 2 hours at concentrations of 100 nM, 1 μM, and 10 μM at 37° C. and 5% CO2. […] (FIG. 1)
For the chronic effect test, HUVECs were incubated with 5 subsequent doses of test compounds, each for 24 hours. After each 24 hour treatment, culture medium was replaced.
For the acute effect test, HUVECs were incubated with a single dose of the test compounds for 24 hours at concentrations of 100 nM, 1 μM, and 10 μM at 37° C. and 5% CO2.

The test system of the next data set is HUVEC. Kind of data set: HUVEC-mediated MTT reduction (toxic effects). The settings on record: for cell-mediated MTT reduction: Experiment 2, chronic, 5 x 24 hours, 10 μM (20 μM for the Epicatechin gallates). In general terms: Formazan colour is commonly taken as a measure of viable cells.
The mark [2] stands for this setting: Experiment 4, 10^−9M -10^4M (so in the source).
The mark [3] stands for this setting: Experiment 1, chronic, 5 subsequent 24 hour doses.

On to `Oc1cc(O)c2c(c1)O[C@H](c1ccc(O)c(O)c1)[C@@H](O)[C@@H]2c1c(O)cc(O)c2c1O[C@H](c1ccc(O)c(O)c1)[C@H](O)C2` [C-(4α→8)-EC], for which the relaxation response entry in the data set with rabbit aortic rings (Experiment 2, 10^−9 to 10^−4 M) was “No significant relaxation response”.
In the case of `O=C(O[C@@H]1Cc2c(O)cc(O)cc2O[C@@H]1c1cc(O)c(O)c(O)c1)c1cc(O)c(O)c(O)c1` [EGCG, Epigallocatechingallate, reference compound], the relaxation response entry with rabbit aortic rings (setting [2]) is on record as “No significant relaxation response”. Besides, the “modulation of NO production” value in data set [1] (Experiment 2, single dose, 24 hours, 10 μM) was “statistically significant ability to modulate NO production”. In data set [1], the “HUVEC Cells NOx, 24 hr” value was 20 uM, sign. NOx inc and the “HUVEC Cells NOx, 5 d” value was “No significant NOx increase;”.
Turning to `O=C(O[C@@H]1Cc2c(O)cc(O)cc2O[C@@H]1c1ccc(O)c(O)c1)c1cc(O)c(O)c(O)c1` [ECG, Epicatechingallate, reference compound], the relaxation response result in the data set on rabbit aortic rings (setting [2]) is reported as “No significant relaxation response”. Further, in the data set on HUVEC, the “cell-mediated MTT reduction” value is “significant decline of cell-mediated MTT reduction”.
As for `Oc1cc(O)c2c(c1)O[C@H](c1ccc(O)c(O)c1)[C@H](O)[C@H]2c1c(O)cc(O)c2c1O[C@H](c1ccc(O)c(O)c1)[C@H](O)C2` [EC-(4β→8)-EC], the relaxation response entry in the data set with rabbit aortic rings (Experiment 1, 10^−9 to 10^−4 M) was “No significant relaxation response”. Further, the MTT reduction result with HUVEC (setting [3]) is “decline in MTT reduction”.
Take `NCCc1c[nH]cn1` [histamine, reference compound]: in data set [1] (compared to vehicle), the “NO production, positive and negative controls” value is on record as “statistically significant increase in NO production”.
On to `O=C(O[C@H]1[C@H](c2c(O)cc(O)c3c2O[C@H](c2ccc(O)c(O)c2)[C@@H](OC(=O)c2cc(O)c(O)c(O)c2)C3)c2c(O)cc(O)cc2O[C@@H]1c1ccc(O)c(O)c1)c1cc(O)c(O)c(O)c1` [C-(4α→8)-C digallate, (+)-Catechin-(4α,8)-(+)-Catechin Digallate], for which, in the data set with rabbit aortic rings (Experiment 2, 10^−4 M), the “relaxation response, percent relaxation of NE constricted rings” value (“relaxation response, percent relaxation” for short) is listed as 71.7+/−11.6%. Moreover, in the data set on rabbit aortic rings, the “Max Relaxation” value worked out at 72% and the “Aortic Ring Effective Conc,” value was found to be 100 µM.
In the case of `Oc1cc(O)c2c(c1)O[C@H](c1ccc(O)c(O)c1)[C@@H](O)[C@H]2c1c(O)cc(O)c2c1O[C@H](c1ccc(O)c(O)c1)[C@H](O)C2` [C-(4β→8)-EC], in the data set with rabbit aortic rings (Experiment 2, 10^−9 to 10^−4 M), the relaxation response entry is recorded as “No significant relaxation response”. Besides, in the data set on HUVEC, the “cell-mediated MTT reduction” value is listed as “significant decline of cell-mediated MTT reduction”.
`O=C(O[C@H]1[C@@H](c2c(O)cc(O)c3c2O[C@H](c2ccc(O)c(O)c2)[C@@H](OC(=O)c2cc(O)c(O)c(O)c2)C3)c2c(O)cc(O)cc2O[C@@H]1c1ccc(O)c(O)c1)c1cc(O)c(O)c(O)c1` [C-(4β→8)-C digallate, (+)-Catechin-(4β,8)-(+)-Catechin Digallate]: in the data set on rabbit aortic rings (Experiment 2, 10^−4 M), the “relaxation response, percent relaxation” value is listed as 72.6+/−9.8%. Also, in the data set with rabbit aortic rings, the “Max Relaxation” value stood at 73% and the “Aortic Ring Effective Conc,” value is 100 µM.
Turning to `O=C(O[C@@H]1[C@@H](c2c(O)cc(O)c3c2O[C@H](c2ccc(O)c(O)c2)[C@@H](OC(=O)c2cc(O)c(O)c(O)c2)C3)c2c(O)cc(O)cc2O[C@@H]1c1ccc(O)c(O)c1)c1cc(O)c(O)c(O)c1` [EC-(4β→8)-C digallate, (−)-Epicatechin-(4β,8)-(+)-Catechin Digallate], in the data set on rabbit aortic rings (Experiment 2, 10^−4 M), the “relaxation response, percent relaxation” value was 56.7+/−15.4%. Further, in the data set on rabbit aortic rings, the “Max Relaxation” value is recorded as 57% and the “Aortic Ring Effective Conc,” value was 100 µM.
With “(−)-Epicatechin-(4β,8)-(OMethyl)4-(−)-Epicatechin Digallate [EC-(4β→8)(OMethyl)4-EC digallate]”, the relaxation response entry in the data set on rabbit aortic rings (Experiment 1, 10^−9 to 10^−4 M) was “No significant relaxation response”. Moreover, in data set [1], the “HUVEC Cells NOx, 2 hr” value is “no effect”; the “HUVEC Cells NOx, 24 hr” value is listed as “no effect”; the “HUVEC Cells NOx, 5 d” value is on record as 10 uM, significant NOx increase.
Regarding `Oc1cc(O)c2c(c1)O[C@H](c1ccc(O)c(O)c1)[C@@H](O)[C@H]2c1c(O)cc(O)c2c1O[C@H](c1ccc(O)c(O)c1)[C@@H](O)C2` [C-(4β→8)-C, (+)-Catechin-(4β,8)-(+)-Catechin], the relaxation response entry in the data set with rabbit aortic rings (Experiment 1, 10^−9 to 10^−4 M) was “No significant relaxation response”. Moreover, in the data set on rabbit aortic rings (Experiment 2, 10^−9 to 10^−4 M), the relaxation response entry is “No significant relaxation response”. The “HUVEC NO production” value in data set [1] (Experiment 2, chronic, 5 subsequent 24 hour doses) was “increase in HUVEC NO production”. Also, in data set [1], the “HUVEC Cells NOx, 2 hr” value was “no effect”; the “HUVEC Cells NOx, 24 hr” value is listed as “no effect”; the “HUVEC Cells NOx, 5 d” value is 10 uM, significant NOx increase.
Take `CNC(=N)NCCC[C@H](N)C(=O)O` [L-NNMA, reference compound]: the “NO production, positive and negative controls” value in data set [1] (compared to vehicle) was “completely attenuated the acetylcholine and histamine-NO production”. The “NOx production, positive and negative controls” value in data set [1] (Experiment 2, single dose, 24 hours, compared to vehicle) is given as “completely attenuated the acetylcholine-induced NO production”.
On to `Cc1c(O)c(C2c3c(O)cc(O)cc3OC(c3ccc(O)c(O)c3)C2O)c(O)c2c1OC(c1ccc(O)c(O)c1)C(O)C2` (stereo not drawn) [EC(4β→6)EC-8methyl], for which the relaxation response entry with rabbit aortic rings (Experiment 2, 10^−9 to 10^−4 M) is on record as “No significant relaxation response”.
On to `COC(=O)[C@@H](N)CCCNC(=N)N[N+](=O)[O-]` [L-NAME, reference compound], for which, in the data set on rabbit aortic rings (vessels pre-treated with negative control), the “relaxation responses after pre-treatment with NOS inhibitor” value is “relaxation responses were attenuated”.
As for `CC(=O)OCC[N+](C)(C)C` [acetylcholine, reference compound], in the data set with rabbit aortic rings (positive control), the “concentration producing a relaxation response” value is listed as 10^−7 M and the “concentration reaching maximal relaxation” value is reported as 10^−6 M.
Consider `O=C(O)c1cc(O)c(O)c(O)c1` [Gallic Acid, reference compound], for which the relaxation response result with rabbit aortic rings (setting [2]) was “No significant relaxation response”.
`Oc1cc(O)c2c(c1)O[C@H](c1cc(O)c(O)c(O)c1)[C@H](O)C2` [EGC, Epigallocatechin, reference compound]: the relaxation response entry in the data set with rabbit aortic rings (setting [2]) is on record as “No significant relaxation response”.
`Oc1cc(O)c2c(c1)O[C@H](c1ccc(O)c(O)c1)[C@@H](O)[C@@H]2c1c(O)cc(O)c2c1O[C@H](c1ccc(O)c(O)c1)[C@@H](O)C2` [C-(4α→8)-C, (+)-Catechin-(4α,8)-(+)-Catechin]: the “relaxation response, percent relaxation” value with rabbit aortic rings (Experiment 1, 10^−4 M) is listed as 60.80+/−15.09%. For the same compound, in the data set on rabbit aortic rings, the “Max Relaxation” value is listed as 61% and the “Aortic Ring Effective Conc,” value turned out to be 100 µM. In addition, the NO production entry in data set [1] (Experiment 1, 24 h after single dose, 10 μM) is recorded as “increased NO production”. In data set [1] (setting [3]), the NO production result is “did not modulate NO production”. For the same compound, in data set [1], the “HUVEC Cells NOx, 2 hr” value was “no effect”; the “HUVEC Cells NOx, 24 hr” value is 10 uM, sign. NOx incr; the “HUVEC Cells NOx, 5 d” value is listed as “no effect”.
